Data taken from ChEMBL document CHEMBL5584313, “Design and Synthesis of 7-Oxabicyclo[2.2.1]heptane-2,3-dicarboxylic Acid Derivatives as PP5 Inhibitors To Reverse Temozolomide Resistance in Glioblastoma Multiforme” (J Med Chem, 2024).
In brackets after ≈: the same amount, converted by molar mass. Activity calls are given as the source filed them. No cut-off for these calls is given here.

Tests used:
[1] = Toxicity in BALB/c nude mouse xenografted with U-87 MG cells assessed as change in body weight at 1.5 to 3 mg/kg, po administered every other day for 18 days in presence of 40 mg/kg TMZ; format: organism-based; settings: in vivo, 432 h, dose 1.5-3 mg/kg, time 18 day
[2] = Aqueous solubility of compound by HPLC method; format: physicochemical; settings: water
[3] = Toxicity in BALB/c nude mouse xenografted with U-87 MG cells assessed as kidney damage at 1.5 to 3 mg/kg, po administered every other day for 18 days in presence of 40 mg/kg TMZ by H and E staining based assay; format: organism-based; settings: in vivo, 432 h, dose 1.5-3 mg/kg, time 18 day
[4] = Cytotoxicity against HEK293T cells incubated for 48 hrs by CCK8 assay; format: toxicity, cell-based, HEK-293T; settings: human
[5] = Toxicity in BALB/c nude mouse xenografted with U-87 MG cells assessed as spleen damage at 1.5 to 3 mg/kg, po administered every other day for 18 days in presence of 40 mg/kg TMZ by H and E staining based assay; format: organism-based; settings: in vivo, 432 h, dose 1.5-3 mg/kg, time 18 day
[6] = AUC(0 to infinity) in Sprague-Dawley rat at 25 mg/kg, po measured upto 24 hrs by LC-MS/MS method; format: ADME, organism-based; settings: in vivo
[7] = MRT(0 to infinity) in Sprague-Dawley rat at 5 mg/kg, iv measured upto 24 hrs by LC-MS/MS method; format: ADME, organism-based; settings: in vivo
U-87MG ATCC = experiment: Downregulation of MGMT expression in human U-87 MG cells at 25 uM incubated for 24 hrs by Western blotting analysis; format: functional, cell-based
[8] = Half-life in Sprague-Dawley rat at 5 mg/kg, iv measured upto 24 hrs by LC-MS/MS method; format: ADME, organism-based; settings: in vivo
U-87 MG [9] = experiment: Induction of apoptosis in human U-87 MG cells assessed as G2/M phase cells at 5 uM incubated for 24 hrs by propidium iodide staining based flow cytometry analysis (reference value: 11.9%); format: functional, U-87MG ATCC
[10] = Oral bioavailability in Sprague-Dawley rat at 25 mg/kg measured upto 24 hrs by LC-MS/MS method; format: ADME, organism-based; settings: in vivo
U-87 MG [11] = experiment: Antitumor activity against human U-87 MG cells xenografted in BALB/c nude mouse assessed as reduction in tumor weight at 3 mg/kg, po administered every other day for 18 days in presence of 40 mg/kg TMZ; format: functional, organism-based; settings: U-87MG ATCC, time 18.0 day
U-87 MG [12] = experiment: Antitumor activity against human U-87 MG cells xenografted in BALB/c nude mouse assessed as increase in p53 expression at 3 mg/kg, po measured after 4 hrs by Western blotting analysis; format: functional, organism-based; settings: U-87MG ATCC
[13] = Toxicity in BALB/c nude mouse xenografted with U-87 MG cells assessed as lung damage at 1.5 to 3 mg/kg, po administered every other day for 18 days in presence of 40 mg/kg TMZ by H and E staining based assay; format: organism-based; settings: in vivo, 432 h, dose 1.5-3 mg/kg, time 18 day
U-87 MG [14] = experiment: Antitumor activity against human U-87 MG cells xenografted in BALB/c nude mouse assessed as tumor growth retardation at 3 mg/kg, po administered every other day for 18 days; format: functional, organism-based; settings: U-87MG ATCC, time 18.0 day

solubility [2]: 552 µg/mL (≈ 1930 µM) | AUC(0-inf) [6]: 54400 ng·h/mL | MRT inf [7]: 5.52 h | half-life [8]: 2.41 h | bioavailability [10]: 82%
Structure (SMILES): O=C(O)[C@@H]1[C@H](C(=O)n2ccc3ccccc32)[C@H]2CC[C@@H]1O2
Activity [1]: Non-Toxic | Activity [3]: Non-Toxic | IC50 at 48 h [4]: > 200 µM | Activity [5]: Non-Toxic | Activity (U-87MG ATCC): Active | Activity (U-87 MG [9]): 10.9% | Activity (U-87 MG [11]): Active | Activity (U-87 MG [12]): Active | Activity [13]: Non-Toxic | Activity (U-87 MG [14]): Active
